Test results from patent US20130196949A1, “Hydroxyalkyl starch in combination with cytostatica for the treatment of cancers by reduction of tumor growth rates” (Fresenius Kabi Deutschland GmbH, priority 2012, published 2013).
Where two headings read alike, the source gives them in different places.

How the values were obtained:
[1] = system: LXFE 397/26N17 (Non-Small Cell Lung Cancer, squamous cell carcinoma) xenograft
Experimental: (§1) Animals and tumor implants were monitored daily until the maximum number of implants show clear signs of beginning solid tumor growth. […] The day of randomization was designated as day 0 of an experiment and was also the first day of dosing.
(§2) The tumor volume was determined by a two-dimensional measurement with callipers on the day of randomization (Day 0) and then once to twice weekly. Tumor volumes were calculated according to the following equation:
Tumor Vol[mm^3]=a[mm]×b^2[mm^2]×0.5
(§3) where “a” is the largest diameter and “b” is the perpendicular diameter of the tumor representing an idealized ellipsoid.
(§4) The relative volume of an individual tumor on day X (RTVx) was calculated by dividing the absolute volume [mm^3] of the respective tumor on day X (Tx) by the absolute volume of the same tumor on the day of randomization, i.e. on day 0 (T0), multiplied by 100, as shown by the following equation:
(§5) Group median of RTVs were calculated, considering only the tumors of animals that were alive on the day in question. Group median RTVs are used for drawing tumor growth curves.
Mice were either treated with Capecitabine at a dose of 100 mg/kg per orally (p.o.), with the plasma expander Voluven® 10% at a dose of 20 ml/kg bodyweight intravenously (i.v.), or with saline (20 ml/kg) i.v. at days 0, 4, 7, 11, 14, and 18. Tumor growth and body weight were determined over the course of the experiment. […]

[2] = LXFE 397 study, FIG. 2
Experimental: (§6) Starting on day 0, animals were weighed once to twice a week. Relative body weights (RBW) of individual animals are calculated by dividing the individual absolute body weight on day X (BWx) by the individual body weight on the day of randomization, i.e. day 0 (BW0), multiplied by 100, as shown by the following equation:
(§7) Group median of relative body weights were determined, considering only the weights of animals that were alive on the day in question.
Tumor growth and body weight were determined over the course of the experiment.

[3] = Relative body weight of mice bearing HNXF 1842 tumors; format: in vivo; conditions: HNXF 1842 study, FIG. 4
Experimental: as §6, §7
Mice were either treated with Paclitaxel at a dose of 10 mg/kg i.v., with a combination of Voluven® 10% (20 ml/kg i.v.) and Paclitaxel (10 mg/kg i.v.), or with saline (20 ml/kg) i.v. at days 0, 7, 14, and 21. Tumor growth and body weight were determined over the course of the experiment.

[4] = system: HNXF 1842 (Head and Neck Cancer, squamous cell carcinoma) xenograft; assay: Tumor growth of HNXF 1842 human tumor xenograft in NMRI nu/nu mice; format: in vivo
Experimental: as §1, §2
Tumor Vol[mm^3]=a[mm]×b^2[mm^2]×0.5
as §3, §4, §5
Mice were either treated with Paclitaxel at a dose of 10 mg/kg i.v., with a combination of Voluven® 10% (20 ml/kg i.v.) and Paclitaxel (10 mg/kg i.v.), or with saline (20 ml/kg) i.v. at days 0, 7, 14, and 21. Tumor growth and body weight were determined over the course of the experiment. […]

[5] = system: RXF 1220 (renal cancer, hypernephroma) xenograft; conditions: day 27; Sunitinib 40 mg/kg p.o., Voluven 10% 20 ml/kg i.v. 1 hour prior; days 0-11
Experimental: as §1, §2
Tumor Vol[mm^3]=a[mm]×b^2[mm^2]×0.5
as §3, §4, §5
Mice were either treated with Sunitinib at a dose of 40 mg/kg p.o., with a combination of Voluven® 10% (20 ml/kg i.v.) and Sunitinib (40 mg/kg p.o.), or with saline (20 ml/kg) i.v. at days 0-11. Tumor growth and body weight were determined over the course of the experiment. […]

[6] = Relative body weight of mice bearing RXF 1220 tumors; format: in vivo; conditions: RXF 1220 study, FIG. 6
Experimental: Starting on day 0, animals were weighed once to twice a week. Relative body weights (RBW) of individual animals are calculated by dividing the individual absolute body weight on day X (BWx) by the individual body weight on the day of randomization, i.e. day 0 (BW0), multiplied by 100, as shown by the following equation: Group median of relative body weights were determined, considering only the weights of animals that were alive on the day in question. Mice were either treated with Sunitinib at a dose of 40 mg/kg p.o., with a combination of Voluven® 10% (20 ml/kg i.v.) and Sunitinib (40 mg/kg p.o.), or with saline (20 ml/kg) i.v. at days 0-11. Tumor growth and body weight were determined over the course of the experiment.

## CCCCCOC(=O)Nc1nc(=O)n([C@@H]2O[C@H](C)[C@@H](O)[C@H]2O)cc1F [Capecitabine]
[1]; day 14, Capecitabine 100 mg/kg p.o., Voluven 10% 20 ml/kg i.v. 1 hour prior, days 0, 4, 7, 11, 14, 18
  median relative tumor volume increase compared to day 0: approx. 15.2 fold
[1]; over 14 days, combination compared with reference drug alone
  inhibitory effect on tumor growth (in words): moderately inhibited the tumor growth
[2]
  relative median body weight over time (in words): did not increase the body weight as steadily as the other two

## CC(=O)O[C@H]1C(=O)[C@@]2(C)[C@H]([C@H](OC(=O)c3ccccc3)[C@]3(O)C[C@H](OC(=O)[C@H](O)[C@@H](NC(=O)c4ccccc4)c4ccccc4)C(C)=C1C3(C)C)[C@]1(OC(C)=O)CO[C@@H]1C[C@@H]2O [Paclitaxel]
[3]
  relative median body weight over time (in words): lowest increase
[4]; day 18, Paclitaxel 10 mg/kg i.v., Voluven 10% 20 ml/kg i.v. 1 hour prior, days 0, 7, 14, 21
  median relative tumor volume increase compared to day 0: approx. 7.1 fold
[4]; over 18 days, combination compared with reference drug alone
  inhibitory effect on tumor growth (in words): inhibited the tumor growth

## CCN(CC)CCNC(=O)c1c(C)[nH]c(/C=C2\C(=O)Nc3ccc(F)cc32)c1C [Sunitinib]
[5]
  median relative tumor volume increase compared to day 0: approx. 8.5 fold
[6]
  relative median body weight over time (in words): increased slightly over time
